In patent US7414061B2, “Aryl-isoxazol-4-yl-imidazole derivatives” (Hoffmann-La Roche Inc., priority 2005, dated 2008):

Target: T1, GABA A receptor α5β3γ2 (hα5) (Homo sapiens, UniProt P18507+P31644)
T1 construct: expressed in transfected cells; host or cells: HEK293 (transiently transfected), membrane preparation
Test: [3H]flumazenil competition binding assay, human GABA A α5β3γ2
Settings: displacement of [3H]flumazenil (0.5 nM) from HEK293 cell membranes expressing α5β3γ2; means of two determinations; read-out: Ki[nM] hα5
Method: The affinity of compounds at GABA A receptor subtypes was measured by competition for [3H]flumazenil (85 Ci/mmol; Roche) binding to HEK293 cells expressing rat (stably transfected) or human (transiently transfected) receptors of composition α1β3γ2, α2β3γ2, α3β3γ2 and α5β3γ2.
Cell pellets were suspended in Krebs-tris buffer (4.8 mM KCl, 1.2 mM CaCl2, 1.2 mM MgCl2, 120 mM NaCl, 15 mM Tris; pH 7.5; binding assay buffer), homogenized by polytron for ca. 20 sec on ice and centrifuged for 60 min at 4° C. (50000 g; Sorvall, rotor: SM24=20000 rpm). The cell pellets were resuspended in Krebs-tris buffer and homogenized by polytron for ca. 15 sec on ice. Protein was measured (Bradford method, Bio-Rad) and aliquots of 1 mL were prepared and stored at −80° C.
Radioligand binding assays were carried out in a volume of […] (96-well plates) which contained […] of cell membranes, [3H]flumazenil at a concentration of 1 nM for α1, α2, α3 subunits and 0.5 nM for α5 subunits and the test compound in the range of […]. Nonspecific binding was defined by 10^−5 M diazepam and typically represented less than 5% of the total binding. Assays were incubated to equilibrium for 1 hour at 4° C. and harvested onto GF/C uni-filters (Packard) by filtration using a Packard harvester and washing with ice-cold wash buffer (50 mM Tris; pH 7.5). After drying, filter-retained radioactivity was detected by liquid scintillation counting. Ki values were calculated using Excel-Fit (Microsoft) and are the means of two determinations.

Row | Compound | Ki [nM]
1 | 1-{4-(4-[5-Ethyl-3-(4-fluoro-phenyl)-isoxazol-4-yl]-imidazol-1-yl}-phenyl)-ethanone [Example 132] | 4.7
2 | Cc1onc(-c2ccccc2)c1-c1cn(-c2ccc(C(=O)NCC3CC3)cc2)cn1 [Example 71, N-Cyclopropylmethyl-4-[4-(5-methyl-3-phenyl-isoxazol-4-yl)-imidazol-1-yl]-benzamide] | 16.7
3 | Cc1onc(-c2ccccc2)c1-c1cn(-c2ccc([N+](=O)[O-])cc2)c(COCc2ccccc2)n1 [Example 63, 4-[2-Benzyloxymethyl-1-(4-nitro-phenyl)-1H-imidazol-4-yl]-5-methyl-3-phenyl-isoxazole] | 14.4
4 | Cc1onc(-c2ccccc2)c1-c1cn(-c2ccc(C#N)cc2)c(COCc2ccccc2)n1 [Example 65, 4-[2-Benzyloxymethyl-4-(5-methyl-3-phenyl-isoxazol-4-yl)-imidazol-1-yl]-benzonitrile] | 19.1
5 | CC(=O)c1ccc(-n2cnc(-c3c(-c4ccccc4)noc3C3CC3)c2)cc1 [Example 135, 1-{4-[4-(5-Cyclopropyl-3-phenyl-isoxazol-4-yl)-imidazol-1-yl]-phenyl}-ethanone] | 1.64
6 | Cc1onc(-c2ccccc2)c1-c1cn(-c2ccc(C(=O)NC3CCOCC3)cc2)cn1 [Example 77, 4-[4-(5-Methyl-3-phenyl-isoxazol-4-yl)-imidazol-1-yl]-N-(tetrahydro-pyran-4-yl)-benzamide] | 27.3
7 | Cc1onc(-c2ccc(F)cc2)c1-c1cn(-c2cccnc2)cn1 [Example 124, 3-{4-[3-(4-Fluoro-phenyl)-5-methyl-isoxazol-4-yl]-imidazol-1-yl}-pyridine] | 27.2
8 | CCc1onc(-c2ccc(F)cc2)c1-c1cn(-c2ccc([N+](=O)[O-])cc2)cn1 [Example 134, 5-Ethyl-3-(4-fluoro-phenyl)-4-[1-(4-nitro-phenyl)-1H-imidazol-4-yl]-isoxazole] | 12.7
9 | Cc1onc(-c2ccc(F)cc2)c1-c1cn(-c2cccc(C#N)c2)cn1 [Example 122, 3-{4-[3-(4-Fluoro-phenyl)-5-methyl-isoxazol-4-yl]-imidazol-1-yl}-benzonitrile] | 25.6
10 | COC(=O)c1cccc(-n2cnc(-c3c(-c4ccccc4)noc3C)c2)c1 [Example 11, 3-[4-(5-Methyl-3-phenyl-isoxazol-4-yl)-imidazol-1-yl]-benzoic acid methyl ester] | 15.1
11 | Cc1onc(-c2ccccc2)c1-c1cn(-c2ccccc2)cn1 [Example 2, 5-Methyl-3-phenyl-4-(1-phenyl-1H-imidazol-4-yl)-isoxazole] | 21.7
12 | Cc1onc(-c2ccc(F)cc2)c1-c1cn(-c2cccc(F)c2)cn1 [Example 119, 3-(4-Fluoro-phenyl)-4-[1-(3-fluoro-phenyl)-1H-imidazol-4-yl]-5-methyl-isoxazole] | 33.7
13 | Cc1onc(-c2ccccc2)c1-c1cn(-c2cccc(C(=O)NC3CC3)c2)cn1 [Example 84, N-Cyclopropyl-3-[4-(5-methyl-3-phenyl-isoxazol-4-yl)-imidazol-1-yl]-benzamide] | 31.8
14 | CC(=O)c1ccc(-n2cnc(-c3c(-c4ccccc4)noc3C)c2)cc1 [Example 12, 1-{4-[4-(5-Methyl-3-phenyl-isoxazol-4-yl)-imidazol-1-yl]-phenyl}-ethanone] | 5.5
15 | Cc1onc(-c2ccccc2)c1-c1cn(-c2ccc(C(=O)NCc3cccnc3)cc2)cn1 [Example 78, 4-[4-(5-Methyl-3-phenyl-isoxazol-4-yl)-imidazol-1-yl]-N-pyridin-3-ylmethyl-benzamide] | 12.8
16 | Cc1onc(-c2ccccc2)c1-c1cn(-c2ccc(C(=O)NCc3ccncc3)cc2)cn1 [Example 79, 4-[4-(5-Methyl-3-phenyl-isoxazol-4-yl)-imidazol-1-yl]-N-pyridin-4-ylmethyl-benzamide] | 14
17 | Cc1onc(-c2ccccc2)c1-c1cn(-c2ccc([N+](=O)[O-])cc2)c(COCc2ccc(C(F)(F)F)nc2)n1 [Example 164, 5-[4-(5-Methyl-3-phenyl-isoxazol-4-yl)-1-(4-nitro-phenyl)-1H-imidazol-2-ylmethoxymethyl]-2-trifluoromethyl-pyridine] | 27

Now from value to compound:

Row | Ki [nM] | Compound
18 | 17.3 | Cc1ccc(COCc2nc(-c3c(-c4ccccc4)noc3C)cn2-c2ccc([N+](=O)[O-])cc2)cc1 [Example 153, 5-Methyl-4-[2-(4-methyl-benzyloxymethyl)-1-(4-nitro-phenyl)-1H-imidazol-4-yl]-3-phenyl-isoxazole]
19 | 20.4 | Cc1onc(-c2ccccc2)c1-c1cn(-c2cccc(C(F)(F)F)c2)cn1 [Example 10, 5-Methyl-3-phenyl-4-[1-(3-trifluoromethyl-phenyl)-1H-imidazol-4-yl]-isoxazole]
20 | 16.3 | Cc1onc(-c2ccccc2)c1-c1cn(-c2ccc([N+](=O)[O-])cc2)c(COCc2ccccn2)n1 [Example 161, 2-[4-(5-Methyl-3-phenyl-isoxazol-4-yl)-1-(4-nitro-phenyl)-1H-imidazol-2-ylmethoxymethyl]-pyridine]
21 | 14.6 | Cc1onc(-c2ccccc2)c1-c1cn(-c2ccc(C(=O)NCCCN3CCOCC3)cc2)cn1 [Example 73, 4-[4-(5-Methyl-3-phenyl-isoxazol-4-yl)-imidazol-1-yl]-N-(3-morpholin-4-yl-propyl)-benzamide]
22 | 4.7 | CC(=O)c1ccc(-n2cnc(-c3c(-c4ccc(F)cc4)noc3C)c2)cc1 [Example 46, 1-(4-{4-[3-(4-Fluoro-phenyl)-5-methyl-isoxazol-4-yl]-imidazol-1-yl}-phenyl)-ethanone]
23 | 25.5 | CCCc1ccc(-n2cnc(-c3c(-c4ccccc4)noc3C)c2)cc1 [Example 9, 5-Methyl-3-phenyl-4-[1-(4-propyl-phenyl)-1H-imidazol-4-yl]-isoxazole]
24 | 29.6 | Cc1onc(-c2ccccc2)c1-c1cn(-c2ccc(F)cc2)cn1 [Example 3, 4-[1-(4-Fluoro-phenyl)-1H-imidazol-4-yl]-5-methyl-3-phenyl-isoxazole]
25 | 29.9 | Cc1onc(-c2ccccc2)c1-c1cn(-c2ccc([N+](=O)[O-])cc2)c(C=O)n1 [Example 149, 4-(5-Methyl-3-phenyl-isoxazol-4-yl)-1-(4-nitro-phenyl)-1H-imidazole-2-carbaldehyde]
26 | 9.5 | Cc1onc(-c2ccccc2)c1-c1cn(-c2ccc([N+](=O)[O-])cc2)c(COCc2cccnc2)n1 [Example 163, 3-[4-(5-Methyl-3-phenyl-isoxazol-4-yl)-1-(4-nitro-phenyl)-1H-imidazol-2-ylmethoxymethyl]-pyridine]
27 | 19.5 | Cc1onc(-c2ccccc2)c1-c1cn(-c2cccc([N+](=O)[O-])c2)cn1 [Example 82, 5-Methyl-4-[1-(3-nitro-phenyl)-1H-imidazol-4-yl]-3-phenyl-isoxazole]
28 | 18.2 | Cc1onc(-c2ccccc2)c1-c1cn(-c2ccc([N+](=O)[O-])cc2)c(COCc2ccncc2)n1 [Example 165, 4-[4-(5-Methyl-3-phenyl-isoxazol-4-yl)-1-(4-nitro-phenyl)-1H-imidazol-2-ylmethoxymethyl]-pyridine]
29 | 33.1 | Cc1onc(-c2ccccc2)c1-c1cn(-c2cccc(F)c2)cn1 [Example 4, 4-[1-(3-Fluoro-phenyl)-1H-imidazol-4-yl]-5-methyl-3-phenyl-isoxazole]
30 | 17.1 | Cc1onc(-c2ccccc2)c1-c1cn(-c2ccccc2)c(COCc2ccccc2)n1 [Example 146, 4-(2-Benzyloxymethyl-1-phenyl-1H-imidazol-4-yl)-5-methyl-3-phenyl-isoxazole]
31 | 6.7 | Cc1onc(-c2ccccc2)c1-c1cn(-c2ncccn2)c(COCc2ccccc2)n1 [Example 66, 2-[2-Benzyloxymethyl-4-(5-methyl-3-phenyl-isoxazol-4-yl)-imidazol-1-yl]-pyrimidine]
32 | 9.1 | CC(=O)c1ccc(-n2cnc(-c3c(-c4ccc(Br)cc4)noc3C)c2)cc1 [Example 49, 1-(4-{4-[3-(4-Bromo-phenyl)-5-methyl-isoxazol-4-yl]-imidazol-1-yl}-phenyl)-ethanone]
33 | 2.7 | Cc1onc(-c2ccccc2)c1-c1cn(-c2ccc(C(=O)NC3CCC3)cc2)cn1 [Example 75, N-Cyclobutyl-4-[4-(5-methyl-3-phenyl-isoxazol-4-yl)-imidazol-1-yl]-benzamide]
34 | 5.4 | CC(=O)c1ccc(-n2cc(-c3c(-c4ccccc4)noc3C)nc2COCc2ccccc2)cc1 [Example 62, 1-{4-[2-Benzyloxymethyl-4-(5-methyl-3-phenyl-isoxazol-4-yl)-imidazol-1-yl]-phenyl}-ethanone]
35 | 28.5 | Cc1onc(-c2ccc(Br)cc2)c1-c1cn(-c2ncccn2)cn1 [Example 51, 2-{4-[3-(4-Bromo-phenyl)-5-methyl-isoxazol-4-yl]-imidazol-1-yl}-pyrimidine]
36 | 18.1 | Cc1onc(-c2ccccc2)c1-c1cn(-c2ccc([N+](=O)[O-])cc2)c(CO)n1 [Example 147, [4-(5-Methyl-3-phenyl-isoxazol-4-yl)-1-(4-nitro-phenyl)-1H-imidazol-2-yl]-methanol]
